In patent publication US6989364B1, “Methods for treating cardiac hypertrophy by administering IFN-γ” (Genentech, Inc., priority 1998, dated 2006):
Marks after values point to notes of the source that are not given here.

How the values were obtained:
[1] = system: adult rat cardiac myocytes; assay: Inhibition of phenylephrine-induced spreading response of adult myocytes; assay type: cell-based; conditions: IFN-γ 500 U/ml, PE 10^−5 M, 72 hr
Protocol: FIGS. 3A–3F Inhibition of phenylephedrine (PE)-induced spreading response by IFN-γ. Myocytes were pre-incubated with saline vehicle or IFN-γ (500 U/ml) on day of isolation. A second addition of vehicle or IFN-γ was performed 24h after isolation, along with the addition of either vehicle or PE (10^−5 M). After an additional 72 hr incubation, cells were fixed in glutaraldehyde, stained with eosin Y and viewed by fluorescence microscopy. A, B, C Cardiac myocytes after 4 days in culture: control, PE, and PE+IFN-γ, respectively. D, E, F Histographs showing maximum breadth of rod shaped cardiac myocytes versus percent frequency of breadth occurrence. The maximum breadth of rod-shaped cells was determined by fluorescence microscopy and imaging software. At least 200 rod shaped cells from a single experiment were examined per group. […] P<0.001 for all group comparisons. […]
Isolated adult rat myocytes were plated on laminin-coated plates at a density of 3×10^3 cells/ml. After 72 hours of appropriate stimulation, the cells were fixed with gluteraldehyde and stained with Eosin Y. Images of rod shaped cells were captured under fluorescent microscopy and maximum breadth was determined using imaging software (Simple 32, Compix Imaging, Mars, Pa.).

[2] = system: rats with pressure overload; assay: Arterial pressure and heart rate in rats with pressure overload; assay type: in vivo, rat
Excerpt: FIGS. 9A–9C Effects of IFN-γ on systolic arterial pressure, mean arterial pressure, and diastolic arterial pressure in rats with pressure overload. The number in parenthesis is the number of animals in each group. **P<0.01, compared to the sham group. Sham: sham-operated rats; Banded: aortic-banded rats; IFN: IFN-γ, SAP: systolic arterial pressure; MAP: mean arterial pressure; DAP: diastolic arterial pressure.
Experimental protocol in rats with pressure overload The rats with aortic banding randomly received subcutaneous injection of IFN-γ at 0.08 mg/k twice a day for one day before surgery and for 14 days after surgery. Sham animals were not treated. Thirteen days after treatment, a catheter was implanted into the right carotid artery under anesthesia as indicated above. One day after implantation, arterial pressure and HR were measured in conscious rats. The heart and other organs including the liver, kidney, and spleen were removed, weighed, and fixed in 10% buffered formalin for pathological studies. The left ventricle was quickly dissected and frozen with liquid nitrogen in some animals and stored at −80° C. for assessment of gene expression.

## IFN-γ: recombinant mouse IFN-γ (Genentech, Inc., South San Francisco, Calif., or Genzyme, Cambridge, Mass.)
[1]
  Inhibition of phenylephrine-induced myocyte spreading: can also inhibit spreading induced by phenylephrine
[2]; FIG. 9
  Incremental increase in arterial pressure (MAP, systolic, diastolic) in banded rats, IFN-γ vs vehicle: not different
[2]; pressure overload, conscious rats, IFN-γ 0.08 mg/kg s.c. twice a day, mean ± SEM
  HR, heart rate: 418 ± 19* bpm
